This is an account of results in patent US20100303790A1, “USE OF BILIVERDIN REDUCTASE (BVR) AND BVR PEPTIDE FRAGMENTS TO TREAT CORONARY DISORDERS” (UNIVERSITY OF ROCHESTER, priority 2009, published 2010).

“Also recorded” adds a separate entry of the source.

Assay [1] concerns rat neonatal cardiomyocytes. As to the kind of experiment: BVR, HO-2 and HO-1 mRNA in isoproterenol-stimulated cardiomyocytes (RT-PCR). Particulars: 10 μM isoproterenol. The assay is classed as cell-based. On the procedure: Neonatal Rat Cardiomyocytes: Primary cultures of neonatal rat cardiomyocytes were prepared as described previously (Ding et al., “Functional Role of Phosphodiesterase 3 in Cardiomyocyte Apoptosis: Implication in Heart Failure,” Circulation 111:2469-2476 (2005) which is hereby incorporated by reference in its entirety). Briefly, fragmented ventricular tissue from 1-2 day old Sprague-Dawley rats was subjected to multiple rounds of enzymatic digestion with collagenase II (Worthington, Lakewood, N.J.). The cells were then collected by low speed centrifugation at 4° C. Non-myocytes were removed by two rounds of pre-plating the cells on culture dishes. The enriched cardiomyocytes were cultured in DMEM with 10% FBS and 10% horse serum. The day after cell adhesion, 10 μM cytosine 1-β-D-arabinofuranoside (Sigma, St. Louis, Mo.) was added to inhibit the growth of contaminating non-myocytes.
Quantitative RT-PCR: Total RNA was isolated using Trizol reagent (Invitrogen). The first-strand cDNA synthesis and quantitative polymerase chain reaction (RT-PCR) were performed as previously described (Tudor et al., “Biliverdin Reductase is a Transporter of Haem into the Nucleus and is Essential for Regulation of HO-1 Gene Expression by Haematin,” Biochem J 413:405-416 (2008), which is hereby incorporated by reference in its entirety). The following primers were used for PCR analysis: […]
PCR products were resolved by electrophoresis and quantified by image analysis of stained gels.
The question of whether the increased synthesis of each protein required elevated levels of BVR and HO-2 mRNA was investigated by RT-PCR. […] HO-1 protein expression was not detected throughout the whole process of isoproterenol treatment up to 96 hours.

A further assay deals with T1, BVR (Homo sapiens, UniProt P53004, A154S/E160D/G155D).
T1 sequence (P53004 3-296 A154S/G155D/E160D): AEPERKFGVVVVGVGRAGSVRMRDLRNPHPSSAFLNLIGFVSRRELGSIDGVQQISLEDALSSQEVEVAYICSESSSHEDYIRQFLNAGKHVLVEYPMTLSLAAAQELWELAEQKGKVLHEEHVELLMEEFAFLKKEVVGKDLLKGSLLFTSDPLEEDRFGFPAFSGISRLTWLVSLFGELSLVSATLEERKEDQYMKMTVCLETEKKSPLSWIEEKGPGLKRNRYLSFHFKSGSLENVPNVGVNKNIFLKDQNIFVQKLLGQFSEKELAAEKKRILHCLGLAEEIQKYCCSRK
Conditions: Lerner-Marmarosh et al. 2007; cited from earlier work.

A short description of assay [2]: Langendorff perfused heart: BVR and HO-2 protein by western blot. The assay is classed as in vivo, rat. Conditions: 3 hours perfusion; for HO-2 protein expression: peptide 25 μM with 0.1 μM ISO; for BVR protein expression: peptide 25 μM. On the procedure: Western Blot Analysis: Cell lysates were prepared by homogenization in RIPA buffer (40 mM Tris-HCl, pH 7.5, 1 mM EDTA, 1 mM DTT, 0.1 mM Na3VO4, 10 μg/ml aprotinin, 5 μg/ml pepstatin, 20 μg/ml leupeptin, 1 mM bezamidine followed by centrifugation at 800×g for 10 minutes at 4° C. (Ding et al., “Functional Role of Phosphodiesterase 3 in Cardiomyocyte Apoptosis: Implication in Heart Failure,” Circulation 111:2469-2476 (2005), which is hereby incorporated by reference in its entirety). Supernatant proteins were resolved by SDS-PAGE and transferred to nitrocellulose. Western blots were examined using antibodies against β-actin (Cell Signaling), BVR (Huang et al., “Detection of 10 Variants of Biliverdin Reductase in Rat Liver by Two-Dimensional Gel Electrophoresis,” J Biol Chem 264:7844-7849 (1989), which is hereby incorporated by reference in its entirety), HO-1, HO-2 (Panahian et al., “Site of Injury-Directed Induction of Heme Oxygenase-1 and -2 in Experimental Spinal Cord Injury Differential Functions in Neuronal Defense Mechanisms?” J Neurochem 76:539-554 (2001), which is hereby incorporated by reference in its entirety), and cleaved caspase-3 (Cell Signaling, Beverly Mass.). The secondary antibody was horseradish peroxidase-conjugated goat anti-rabbit IgG (1:2,000, Bio-Rad).
In Vivo Experimental Langendorff Model: Male Sprague-Dawley rats weighing 250-300 g (Charles River, Boston, Mass.) were used in this study; the protocol is based on that described by Tompkins et al., “Mitochondrial Dysfunction in Cardiac Ischemia-Reperfusion Injury: ROS From Complex I, Without Inhibition,” Biochim Biophys Acta 1762:223-231 (2006), which is hereby incorporated by reference in its entirety, with minor modification. The rats were fed a standard rat chow and had water ad libitum. All experiments were approved by the University of Rochester Institutional Animal Care and Use Committee. Rats were given two subcutaneous injections of isoproterenol (ISO) (0.01 mg/kg), 6 hours apart, then anesthetized with freshly prepared Avertin (2,2,2-tribromoethanol, […] injected intraperitoneally), and treated with heparin (5000 U/kg), i.p., to protect the heart against microthrombi. The aorta was cannulated in situ with a 22-gauge needle filled with warm Krebs-Henseleit (KH) buffer. The heart was rapidly transferred (<10 s.) to a perfusion apparatus, and retrograde (Langendorff) perfusion begun with 37° C. KH buffer gassed with 95% O2 plus 5% CO2, in constant flow mode (12 ml/min). […] Hemodynamics and heart rate were recorded by inserting a water-filled balloon connected to a transducer (Radnoti LLC, model no. 159904B) into the left ventricle. […]

Take `CC(C)NCC(O)c1ccc(O)c(O)c1` (stereo not drawn) [isoproterenol]: in assay [1], the “HO-2 mRNA content” value is on record as “remained unchanged”, the “level of BVR mRNA” value is “increased” and the “level of HO-1 mRNA” value was “transient increase”.

On to “KYCCSRK (biliverdin reductase peptide) [KYCCSRK^296]”, for which the “effect on BVR activity” value with BVR was “activator”. Besides, in assay [2], the HO-2 protein expression entry is “increased HO-2 protein expression; also recorded: greatly enhanced increase of HO-2 protein” and the BVR protein expression result is “do not affect protein expression”.

“KKRILHC (biliverdin reductase peptide) [KKRILHC^281]”: the “effect on BVR activity” value with BVR is listed as “potent inhibitor”. Moreover, in assay [2], the HO-2 protein expression result is given as “inhibited the BVR-induced HO-2 increase; also recorded: virtually eliminated the induction of HO-2” and the BVR protein expression result is “do not affect protein expression”.
